In general, IC50 refers to the concentration that inhibits the measured activity by half.

Among the data in patent US20170066759A1, “AROMATIC 5-MEMBERED HETEROCYCLIC DERIVATIVE HAVING TRPV4-INHIBITING ACTIVITY” (Shionogi & Co., Ltd., priority 2012, published 2017) are IC50 values, retold here.

The target in the test is T1, human TRPV4 (hTRPV4/CHO cells) (Homo sapiens, UniProt Q9HBA0).
T1 construct: expressed in transfected cells; host or cells: CHO-K1
T1 sequence (Q9HBA0 whole entry): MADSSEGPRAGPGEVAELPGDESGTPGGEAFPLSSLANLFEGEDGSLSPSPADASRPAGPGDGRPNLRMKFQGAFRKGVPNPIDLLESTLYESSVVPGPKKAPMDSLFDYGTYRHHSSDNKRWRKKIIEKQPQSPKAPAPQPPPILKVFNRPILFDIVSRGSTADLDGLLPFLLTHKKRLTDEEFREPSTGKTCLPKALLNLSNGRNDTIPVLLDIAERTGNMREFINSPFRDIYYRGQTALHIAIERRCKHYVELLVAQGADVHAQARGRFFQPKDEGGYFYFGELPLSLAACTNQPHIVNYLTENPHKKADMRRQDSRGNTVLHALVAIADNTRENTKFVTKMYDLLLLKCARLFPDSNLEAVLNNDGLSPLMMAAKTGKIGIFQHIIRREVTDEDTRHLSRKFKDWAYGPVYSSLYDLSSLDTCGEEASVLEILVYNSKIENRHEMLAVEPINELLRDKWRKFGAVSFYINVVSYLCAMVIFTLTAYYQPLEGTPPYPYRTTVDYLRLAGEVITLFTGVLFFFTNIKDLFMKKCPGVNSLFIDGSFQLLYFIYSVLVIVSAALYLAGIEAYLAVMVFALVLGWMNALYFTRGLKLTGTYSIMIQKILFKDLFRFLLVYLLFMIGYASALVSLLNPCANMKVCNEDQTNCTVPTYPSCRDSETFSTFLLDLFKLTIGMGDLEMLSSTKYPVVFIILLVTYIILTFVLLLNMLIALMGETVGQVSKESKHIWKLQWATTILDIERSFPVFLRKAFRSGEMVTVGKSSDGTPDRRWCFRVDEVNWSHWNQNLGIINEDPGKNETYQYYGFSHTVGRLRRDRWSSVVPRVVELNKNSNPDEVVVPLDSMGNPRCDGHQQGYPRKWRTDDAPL
The test is described as follows: Test Example 1: TRPV4 inhibitory activity (IC50 value), 4α-PDD stimulation, Fluo4 calcium fluorescence (FLIPR TETRA). The class given is cell-based. To be noted: Test Example 1, 4α-PDD stimulation, read-out: Test 1 IC50.
For the molecule `Cc1nc(C)c(-c2csc(NC(=O)Cc3cccc(N)c3)n2)s1` [Compound I-409], the half-maximal inhibitory concentration (IC50) is 100 to 1000 nM. In the case of `Cc1nc(CO)sc1-c1csc(NC(=O)CCc2ccc(Cl)cc2)n1` [Compound I-458], the half-maximal inhibitory concentration (IC50) was under 100 nM. The same measure for `Cc1nc(CO)sc1-c1csc(NC(=O)C2CC(=O)N(c3ccccc3)C2)n1` (centres unmarked) [Compound I-199]: 100 to 1000 nM; for `O=C(Nc1nc(-c2sc(CO)nc2CO)cs1)[C@@H]1C[C@@H](c2ccccc2)CN1CC(F)(F)F` [Compound I-337]: 1000 to 8000 nM. As for `COC(=O)c1ccc(C(=O)N2CC(C(=O)Nc3nc(-c4sc(C)nc4C)cs3)C2)cc1` [Compound I-261], the IC50 lay within 100 to 1000 nM. The same measure for `CN(Cc1nc(CO)sc1-c1csc(NC(=O)Cc2ccc(S(=O)(=O)C(F)(F)F)cc2)n1)C(=O)CO` [Compound I-436]: 100 to 1000 nM; for `Cc1nc(CO)sc1-c1csc(NC(=O)C2Oc3ccc(Cl)cc3O2)n1` (racemic) [Compound I-238]: under 100 nM; for `NC(=O)CCc1nc(CO)sc1-c1csc(NC(=O)Cc2ccc(S(=O)(=O)C(F)(F)F)cc2)n1` [Compound I-407]: 100 to 1000 nM. The same measure for `Cc1nc(CO)sc1-c1csc(NC(=O)Cc2cnc(C(F)(F)F)cn2)n1` [Compound I-410]: under 100 nM; for `Cc1nc(CO)sc1-c1csc(NC(=O)C2CCN(CC(F)(F)F)C2)n1` (centres unmarked) [Compound I-213]: 100 to 1000 nM. As for `Cc1nc(C)c(-c2csc(NC(=O)Cn3cc(-c4ccc(S(C)(=O)=O)cc4)nn3)n2)s1` [Compound I-422], the concentration for half-maximal inhibition (IC50) lay within 100 to 1000 nM. Consider `Cc1nc(C)c(-c2csc(NC(=O)[C@@H]3C[C@@H](N4CCC(c5ccccc5)CC4)CN3C(=O)OC(C)(C)C)n2)s1` [Compound I-272], for which the half-maximal inhibitory concentration (IC50) is under 100 nM. With `Cc1nc(C)c(-c2csc(NC(=O)[C@@H]3C[C@@H](N4CCCCC4)CN3C(=O)OC(C)(C)C)n2)s1` [Compound I-275], the IC50 fell in the range of 1000 to 8000 nM. The value for `Cc1nc(CO)sc1-c1csc(NC(=O)C2CN(S(=O)(=O)c3ccc(C(F)(F)F)cc3)C2)n1` [Compound I-306] was under 100 nM; that for `Cc1nc(C)c(-c2csc(NC(=O)[C@H]3C[C@H](Oc4ccc(C(F)(F)F)cc4)C3)n2)s1` [Compound I-365] was under 100 nM. The same measure for `O=C(Cc1ccc(S(=O)(=O)C(F)(F)F)cc1)Nc1nc(-c2sc(CO)nc2CN2CCCC2=O)cs1` [Compound I-463]: 100 to 1000 nM; for `Cc1nc(CO)sc1-c1csc(NC(=O)C2CC(OCC3CC3)C2)n1` (centres unmarked) [Compound I-333]: 1000 to 8000 nM. The same measure for `Cc1nc([C@H](C)O)sc1-c1csc(NC(=O)Cc2ccc(S(=O)(=O)C(F)(F)F)cc2)n1` [Compound I-454]: under 100 nM; for `Cc1nc(C)c(-c2csc(NC(=O)Cn3cc(Cn4cccc4)nn3)n2)s1` [Compound I-428]: 100 to 1000 nM; for `Cc1nc(COC(N)=O)sc1-c1csc(NC(=O)Cc2ccc(S(=O)(=O)C(F)(F)F)cc2)n1` [Compound I-378]: 100 to 1000 nM. For the molecule `Cc1nc(C)c(-c2csc(NC(=O)C3(C)CCN(c4ccc(C(F)(F)F)cc4)CC3)n2)s1` (racemic) [Compound I-512], the IC50 is under 100 nM.

In the case of `Cc1nc(C)c(-c2csc(NC(=O)[C@@H]3CC[C@H](c4ccccc4)N3C(=O)OC(C)(C)C)n2)s1` [Compound I-212], the IC50 was under 100 nM. The value for `Cc1nc(CO)sc1-c1csc(NC(=O)[C@H]2C[C@@H](c3ccc(C(F)(F)F)cc3)C2)n1` [Compound I-405] was under 100 nM. Consider `Cc1nc(CO)sc1-c1csc(Nc2ccccn2)n1` [II-32], for which the IC50 was under 100 nM. The value for `CCNC(=O)c1nc(C)sc1-c1csc(NC(=O)Cc2c(F)cccc2F)n1` [Compound I-181] was 1000 to 8000 nM. As for `Cc1nc(C)c(-c2csc(NC(=O)C(C)c3c(F)cccc3F)n2)s1` (centres unmarked) [Compound I-102], the concentration for half-maximal inhibition (IC50) is 100 to 1000 nM. `Cc1nc(C)c(-c2csc(NC(=O)Cn3cc(-c4cccc(Cl)c4)cn3)n2)s1` [Compound I-146]: the 50% inhibitory concentration (IC50) was under 100 nM. The same measure for `Cc1nc(C)c(-c2csc(NC(=O)[C@H]3CC[C@@H](C(=O)N[C@H](c4ccccc4)C(F)(F)F)CC3)n2)s1` [Compound I-495]: 100 to 1000 nM; for `Cc1nc(C)c(-c2csc(NC(=O)Cc3cccc(S(=O)(=O)Nc4ccc(C(F)(F)F)cc4)c3)n2)s1` [Compound I-498]: under 100 nM. The same measure for `CNC(=O)c1nc(C)c(-c2csc(NC(=O)Cc3c(F)cccc3F)n2)s1` [Compound I-113]: 1000 to 8000 nM; for `Cc1nc(C)c(-c2csc(NC(=O)C3(C)CN(c4ccc(C(F)(F)F)cc4)C3)n2)s1` [Compound I-496]: under 100 nM; for `O=C(Nc1nc(-c2sc(CO)nc2CO)cs1)[C@H]1C[C@@H](OCc2ccccc2)C1` [Compound I-549]: 1000 to 8000 nM. The value for `Cc1nc(OCCO)sc1-c1csc(NC(=O)Cc2ccc(S(=O)(=O)C(F)(F)F)cc2)n1` [Compound I-461] was 100 to 1000 nM; that for `Cc1nc(CO)sc1-c1csc(NC(=O)CC2CCN(S(=O)(=O)C(F)(F)F)CC2)n1` [Compound I-453] was 100 to 1000 nM.

Turning to `Cc1nc(C)c(-c2csc(NC(Cc3ccc(Cl)cc3)C(=O)NCc3ccccc3)n2)s1` (racemic) [II-43], the IC50 lay in the range of 1000 to 8000 nM.

With `CCOC(=O)c1nc(C)c(-c2csc(NC(=O)C3Oc4cc(Cl)c(Cl)cc4O3)n2)s1` [Compound I-270], the IC50 was 100 to 1000 nM. The same measure for `NC(=O)c1nc(CO)c(-c2csc(NC(=O)Cc3ccc(S(=O)(=O)C(F)(F)F)cc3)n2)s1` [Compound I-255]: 1000 to 8000 nM. The value for `Cc1nc(C(C)O)c(-c2csc(NC(=O)Cc3c(F)cccc3F)n2)s1` (centres unmarked) [Compound I-130] was 100 to 1000 nM; that for `Cc1nc(C)c(-c2csc(NC(=O)C3CN(c4ccc(C(F)(F)F)cn4)C3)n2)s1` [Compound I-259] was under 100 nM; that for `Cc1nc(CO)sc1-c1csc(NC(=O)C2CC(N3CCC(F)(F)C3)C2)n1` (centres unmarked) [Compound I-361] was 1000 to 8000 nM. The value for `C=C(C)c1sc(NC(=O)Cc2c(F)cccc2F)nc1-c1sc(C)nc1C` [Compound I-71] was 1000 to 8000 nM; that for `Cc1nc(C)c(-c2csc(NC(=O)Cc3cc(C(=O)N[C@H](c4ccccc4)C(F)(F)F)cc(-c4nnn[nH]4)c3)n2)s1` [Compound I-520] was 1000 to 8000 nM; that for `CCNC(=O)N1C[C@H](c2ccccc2)C[C@H]1C(=O)Nc1nc(-c2sc(C)nc2C)cs1` [Compound I-300] was 1000 to 8000 nM. Take `Cc1nc(C)c(-c2csc(NCC(F)(F)c3ccccc3)n2)s1` [II-33]: the IC50 was in the range of 1000 to 8000 nM. `O=C(Nc1nc(-c2sc(CO)nc2CO)cs1)C1CN(c2ccccc2)C1` [Compound I-371]: the IC50 lay in the range of 100 to 1000 nM.

For the molecule `Cc1nc(C)c(-c2csc(NC(=O)[C@H]3C[C@@H](OCc4ccc(C(F)(F)F)cc4)C3)n2)s1` [Compound I-354], the half-inhibitory concentration (IC50) is under 100 nM. Consider `Cc1nc(CO)sc1-c1csc(NC(=O)CC2CCN(c3ncc(C(F)(F)F)cn3)CC2)n1` [Compound I-449], for which the IC50 was under 100 nM. The same measure for `Cc1nc(CO)sc1-c1csc(NC(=O)[C@@H]2C[C@@H](c3ccccc3)CN2C(=O)C(C)(C)F)n1` [Compound I-328]: under 100 nM; for `Cc1nc(CNS(C)(=O)=O)sc1-c1csc(NC(=O)Cc2ccc(S(=O)(=O)C(F)(F)F)cc2)n1` [Compound I-399]: 1000 to 8000 nM.

On to `CCOc1cn(CC(=O)Nc2nc(-c3sc(C)nc3C)cs2)nn1` [Compound I-431], for which the IC50 was in the range of 1000 to 8000 nM. The value for `Cc1nc(CO)sc1-c1csc(NC(=O)C2Oc3cc(Cl)c(Cl)cc3O2)n1` [Compound I-273] was under 100 nM. Consider `O=C(Cc1ccc(S(=O)(=O)C(F)(F)F)cc1)Nc1nc(-c2sc(CO)nc2CCC(=O)N2CCOCC2)cs1` [Compound I-363], for which the IC50 lay in the range of 100 to 1000 nM.

For `Cc1nc(C)c(-c2csc(NC(=O)Cc3cccc(I)c3)n2)s1` [Compound I-443], the half-inhibitory concentration (IC50) was under 100 nM. The same measure for `Cc1nc(C)c(-c2csc(NC(=O)[C@H](Cc3ccccc3)NC(=O)OC(C)(C)C)n2)s1` [Compound I-265]: 100 to 1000 nM. The same measure for `Cc1nc(C(F)F)sc1-c1csc(NC(=O)C2CC2(F)F)n1` (centres unmarked) [Compound I-112]: 1000 to 8000 nM; for `Cc1nc(C)c(-c2csc(NC(=O)CN3CCC(c4ccccc4)C3)n2)s1` (centres unmarked) [Compound I-155]: 100 to 1000 nM; for `Cc1nc(CO)sc1-c1csc(NC(=O)C2CN(C(=O)OC(C)(C)C(F)(F)F)C2)n1` [Compound I-329]: under 100 nM. The same measure for `CN(C)Cc1nc(CO)sc1-c1csc(NC(=O)Cc2ccc(S(=O)(=O)C(F)(F)F)cc2)n1` [Compound I-412]: 1000 to 8000 nM. Take `O=C(CO)NCc1nc(CO)sc1-c1csc(NC(=O)Cc2ccc(S(=O)(=O)C(F)(F)F)cc2)n1` [Compound I-383]: the half-inhibitory concentration (IC50) fell in the range of 100 to 1000 nM. The value for `NC(=O)c1nc(CO)c(-c2csc(NC(=O)C3CN(Cc4ccc(C(F)(F)F)cc4)C3)n2)s1` [Compound I-325] was 100 to 1000 nM.

As for `CCCCOC(CNc1nc(-c2sc(C)nc2C)cs1)c1ccc(Cl)cc1` (racemic) [II-50], the concentration for half-maximal inhibition (IC50) lay in the range of 100 to 1000 nM.

In the case of `Cc1nc(CO)sc1-c1csc(NC(=O)C2C[C@H](C(F)(F)F)CN2C(=O)C(F)(F)F)n1` (some centres unmarked) [Compound I-465], the half-inhibitory concentration (IC50) was 100 to 1000 nM. With `Cc1nc(C)c(-c2csc(NC(=O)Cc3cccc(S(=O)(=O)N[C@H](c4ccccc4)C(F)(F)F)c3)n2)s1` [Compound I-499], the half-inhibitory concentration (IC50) is under 100 nM. The same measure for `COc1nc(C)c(-c2csc(NC(=O)Cc3ccc(S(=O)(=O)C(F)(F)F)cc3)n2)s1` [Compound I-444]: under 100 nM. The value for `Cc1nc(C)c(-c2nc(NC(=O)Cc3c(F)cccc3F)sc2-c2ccc(N(C)C)cc2)s1` [Compound I-67] was 1000 to 8000 nM; that for `CCNCc1nc(CO)sc1-c1csc(NC(=O)Cc2ccc(S(=O)(=O)C(F)(F)F)cc2)n1` [Compound I-237] was 100 to 1000 nM. The value for `Cc1nc(C(F)F)sc1-c1csc(NC(=O)C2CCC(C(F)(F)F)CC2)n1` (centres unmarked) [Compound I-543] was 100 to 1000 nM; that for `COC(=O)N(C)Cc1nc(CO)sc1-c1csc(NC(=O)Cc2ccc(S(=O)(=O)C(F)(F)F)cc2)n1` [Compound I-434] was under 100 nM.
